{
  "source": "paper PMC10223884",
  "about": "“Oligosaccharide Ligands of Galectin-4 and Its Subunits: Multivalency Scores Highly” (Molecules, 2023)",
  "molecules": {"B1": {"name": "N-terminal subunit of Gal-4 with 10 linker residues (Gal-4NL, aa 1-160) (domain or fragment, human, UniProt P56470 1-160, looked up)", "chain": "MAYVPAPGYQPTYNPTLPYYQPIPGGLNVGMSVYIQGVASEHMKRFFVNFVVGQDPGSDVAFHFNPRFDGWDKVVFNTLQGGKWGSEERKRSMPFKKGAAFELVFIVLAEHYKVVVNGNPFYEYGHRLPLQMVTHLQVDGDLQLQSINFIGGQPLRPQGP", "notes": "Galectin-4, human, N-terminal CRD (aa 1-150) with 10 further residues of the inter-domain linker at the C-terminus (aa 1-160); made by PCR from the Gal-4 plasmid, NdeI/XhoI; not shown: His6, N-terminal, kept"}, "B2": {"name": "C-terminal subunit of Gal-4 with 10 linker residues (Gal-4CL, aa 169-323) (domain or fragment, human, UniProt P56470 169-323, looked up)", "chain": "PGHCHQQLNSLPTMEGPPTFNPPVPYFGRLQGGLTARRTIIIKGYVPPTGKSFAINFKVGSSGDIALHINPRMGNGTVVRNSLLNGSWGSEEKKITHNPFGPGQFFDLSIRCGLDRFKVYANGQHLFDFAHRLSAFQRVDTLEIQGDVTLSYVQI", "notes": "Galectin-4, human, C-terminal CRD (aa 179-323) with 10 further residues of the inter-domain linker at the N-terminus (aa 169-323); made by PCR from the Gal-4 plasmid, NdeI/XhoI; not shown: His6, N-terminal, kept"}},
  "key": {"Gal-4 [1]": {"biological_target": "T1, Gal-4 (Homo sapiens, UniProt P56470)", "T1 construct": "made in house; host or cells: Escherichia coli Rosetta (DE3) pLysS", "T1 sequence (P56470 1-323)": "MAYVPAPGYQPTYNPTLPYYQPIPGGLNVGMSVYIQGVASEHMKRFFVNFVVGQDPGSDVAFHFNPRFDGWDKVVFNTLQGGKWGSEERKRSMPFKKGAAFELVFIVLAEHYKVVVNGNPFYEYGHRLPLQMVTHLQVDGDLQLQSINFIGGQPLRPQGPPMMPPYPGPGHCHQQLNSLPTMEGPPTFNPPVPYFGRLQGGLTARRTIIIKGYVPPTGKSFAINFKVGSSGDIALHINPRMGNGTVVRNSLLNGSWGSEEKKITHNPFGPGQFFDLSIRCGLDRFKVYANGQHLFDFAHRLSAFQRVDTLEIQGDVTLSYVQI", "experiment": "direct ELISA, binding of whole Gal-4 to immobilized ASF", "details": "read-out: apparent KD", "method": "(§1) To design the ELISA method, we first examined the direct binding of the whole Gal-4, Gal-4NL, and Gal-4-CL to standard glycoprotein asialofetuin (ASF, MW 48.4 kDa), which carries up to nine LacNAc epitopes. The ASF was immobilized by hydrophobic interaction in microtiter-plate wells, and the binding of increasing concentrations of Gal-4 proteins was quantified by colorimetric immunodetection using horseradish peroxidase conjugated to an anti-His-tag antibody. The apparent dissociation constants (KD) were calculated from the non-linear regression of the binding curves (Figure 3). […] The Gal-4 proteins were incubated with increasing concentrations of the respective inhibitors, and the concentration-dependent inhibition of the binding to the immobilized ASF was quantified using spectrophotometric colorimetric immunodetection (HRP-conjugated anti-His-tag antibody). The respective half-maximal inhibition constants (IC50) were calculated from the non-linear regression of the sigmoidal curves (Figure 3), and they are shown in Table 2 and Table 3.\n(§2) The apparent dissociation constant (KD) of binding of the whole Gal-4 or its subunits to ASF was determined using direct enzyme-linked immunosorbent assay (ELISA), with washing steps as specified above. […] Residual galectins bound to the wells were labeled with anti-His-antibody conjugated with HRP, and evaluated as above."}, "Gal-4CL [2]": {"biological_target": "T2, Gal-4CL (Homo sapiens, UniProt P56470)", "T2 construct": "designated as Gal-4NL (aa 1-160), and Gal-4CL (aa 169-323), respectively; made in house; host or cells: E. coli Rosetta (DE3) pLysS", "T2 sequence (P56470 169-323)": "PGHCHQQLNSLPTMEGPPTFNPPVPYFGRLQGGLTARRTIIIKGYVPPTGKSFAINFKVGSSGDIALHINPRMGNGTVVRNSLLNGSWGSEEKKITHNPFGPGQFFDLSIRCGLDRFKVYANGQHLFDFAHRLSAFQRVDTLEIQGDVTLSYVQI", "experiment": "direct ELISA, binding of Gal-4CL to immobilized ASF", "details": "read-out: apparent KD", "method": "as §1, §2"}, "Gal-4NL [3]": {"biological_target": "T3, Gal-4NL (Homo sapiens, UniProt P56470)", "T3 construct": "designated as Gal-4NL (aa 1-160), and Gal-4CL (aa 169-323), respectively; made in house; host or cells: E. coli Rosetta (DE3) pLysS", "T3 sequence (P56470 1-160)": "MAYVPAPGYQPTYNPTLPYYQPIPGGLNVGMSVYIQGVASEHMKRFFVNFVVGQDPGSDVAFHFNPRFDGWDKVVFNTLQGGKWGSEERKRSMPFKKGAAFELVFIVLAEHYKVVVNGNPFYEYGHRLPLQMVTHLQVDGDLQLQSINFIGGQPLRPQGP", "experiment": "direct ELISA, binding of Gal-4NL to immobilized ASF", "details": "read-out: apparent KD", "method": "as §1, §2"}, "Gal-4N": {"biological_target": "Gal-4N", "set-up": "method as in PMID 26828567, PMID 26077389", "details": "fluorescence anisotropy, read-out: binding constant; cited from earlier work"}, "Gal-4CL [4]": {"biological_target": "T2, Gal-4CL", "experiment": "competitive ELISA, inhibition of binding of Gal-4CL subunit to immobilized ASF", "method": "(§3) To design the ELISA method, we first examined the direct binding of the whole Gal-4, Gal-4NL, and Gal-4-CL to standard glycoprotein asialofetuin (ASF, MW 48.4 kDa), which carries up to nine LacNAc epitopes. The ASF was immobilized by hydrophobic interaction in microtiter-plate wells, and the binding of increasing concentrations of Gal-4 proteins was quantified by colorimetric immunodetection using horseradish peroxidase conjugated to an anti-His-tag antibody. The apparent dissociation constants (KD) were calculated from the non-linear regression of the binding curves (Figure 3). […] While for the Gal-4 ELISA measurement we used the concentration of Gal-4 of 2.5 μM, for both subunits, it was 25 μM. […] The Gal-4 proteins were incubated with increasing concentrations of the respective inhibitors, and the concentration-dependent inhibition of the binding to the immobilized ASF was quantified using spectrophotometric colorimetric immunodetection (HRP-conjugated anti-His-tag antibody). The respective half-maximal inhibition constants (IC50) were calculated from the non-linear regression of the sigmoidal curves (Figure 3), and they are shown in Table 2 and Table 3.\n(§4) Each incubation step was followed by washing the wells with 3 × 250 µL phosphate-buffered saline (PBS) containing 0.05% Tween® 20. In total, 0.1 µM ASF in PBS (50 µL/well) was coated onto microtiter plates (Nunc Immuno Sorb, ThermoFisher Scientific, Waltham, MA, USA) overnight. After blocking the wells with 2 mg/mL bovine serum albumin (BSA) in PBS buffer (250 µL/well, 1 h), serial dilutions of the inhibitors in PBS buffer containing 2 mM EDTA (EPBS) were incubated with Gal-4 (2.5 µM final dimer concentration) or its subunits, Gal-4CL and Gal-4NL (25 µM final monomer concentration) for 2 h (50 µL/well). The residual bound galectin was labeled with an anti-His-antibody conjugated with horseradish peroxidase (HRP) (Santa Cruz Biotechnology, Heidelberg, Germany; 1:999 dilution in PBS). The colorimetric reaction with TMB One substrate solution (Kem-En-Tec, Taastrup, Denmark; 50 µL/well) was stopped with 3 M hydrochloric acid (HCl) (50 µL/well) and quantified spectrophotometrically at 450 nm (Sunrise; Tecan Group Ltd., Männedorf, Switzerland). The values of half-maximal inhibitory concentrations (IC50) were calculated by non-linear regression (dose–response inhibition-variable slope) of sigmoidal curves from a minimum of three independent experiments using GraphPad Prism 8.4.3 (GraphPad Software, San Diego, CA, USA)."}, "Gal-4 [5]": {"biological_target": "T1, Gal-4", "experiment": "competitive ELISA, inhibition of binding of whole Gal-4 to immobilized ASF", "method": "as §3, §4"}, "Gal-4NL [6]": {"biological_target": "T3, Gal-4NL", "experiment": "competitive ELISA, inhibition of binding of Gal-4NL subunit to immobilized ASF", "method": "as §3, §4"}, "Gal-4C": {"biological_target": "Gal-4C", "set-up": "method as in PMID 26828567, PMID 26077389", "details": "fluorescence anisotropy, read-out: binding constant; cited from earlier work"}, "Gal-4NL [7]": {"biological_target": "Gal-4NL", "set-up": "method as in PMID 33968903", "details": "ITC; cited from earlier work"}, "[8]": {"biological_target": "T4, asialofetuin (standard glycoprotein, MW 48.4 kDa) (UniProt P12763 19-359, glycoprotein without sialic acid; carries up to nine LacNAc epitopes)", "T4 construct": "Asialofetuin (desialylated fetuin), MW 48.4 kDa; Commercial asialofetuin is commonly from fetal calf serum; also called ASF", "T4 sequence (looked up)": "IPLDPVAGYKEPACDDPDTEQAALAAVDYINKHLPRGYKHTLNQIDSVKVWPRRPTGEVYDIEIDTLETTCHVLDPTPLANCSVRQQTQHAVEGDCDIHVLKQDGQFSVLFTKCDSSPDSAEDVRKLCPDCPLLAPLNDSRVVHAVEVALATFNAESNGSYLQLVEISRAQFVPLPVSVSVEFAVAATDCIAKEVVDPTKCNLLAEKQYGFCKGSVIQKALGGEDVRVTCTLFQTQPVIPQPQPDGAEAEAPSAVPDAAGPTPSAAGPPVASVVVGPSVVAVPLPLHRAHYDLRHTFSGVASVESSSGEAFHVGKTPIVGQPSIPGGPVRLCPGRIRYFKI", "experiment": "ELISA; direct ELISA; ASF (0.1 µM in PBS) coated on microtiter plate overnight, blocked with BSA; increasing concentrations of Gal-4 or its subunits, 2 h; detected with HRP-conjugated anti-His antibody; apparent KD from non-linear regression", "details": "both partners purified"}, "[9]": {"biological_target": "T5, lactosyl-decorated neo-glycoprotein 12 (human serum albumin carrier) (human, UniProt P02768 25-609, 9.6 lactosyl residues (MALDI-TOF, 72,151 Da) attached by a thiourea linker and diethyl-squarate linkage; sites not stated)", "T5 construct": "Human serum albumin, carrier of the synthetic lactosyl ligands; source: HSA coupled with squarate monoamide ester 11 (tetraborate buffer pH 9.0, 72 h), washed with water by ultracentrifugation", "T5 sequence (P02768 25-609)": "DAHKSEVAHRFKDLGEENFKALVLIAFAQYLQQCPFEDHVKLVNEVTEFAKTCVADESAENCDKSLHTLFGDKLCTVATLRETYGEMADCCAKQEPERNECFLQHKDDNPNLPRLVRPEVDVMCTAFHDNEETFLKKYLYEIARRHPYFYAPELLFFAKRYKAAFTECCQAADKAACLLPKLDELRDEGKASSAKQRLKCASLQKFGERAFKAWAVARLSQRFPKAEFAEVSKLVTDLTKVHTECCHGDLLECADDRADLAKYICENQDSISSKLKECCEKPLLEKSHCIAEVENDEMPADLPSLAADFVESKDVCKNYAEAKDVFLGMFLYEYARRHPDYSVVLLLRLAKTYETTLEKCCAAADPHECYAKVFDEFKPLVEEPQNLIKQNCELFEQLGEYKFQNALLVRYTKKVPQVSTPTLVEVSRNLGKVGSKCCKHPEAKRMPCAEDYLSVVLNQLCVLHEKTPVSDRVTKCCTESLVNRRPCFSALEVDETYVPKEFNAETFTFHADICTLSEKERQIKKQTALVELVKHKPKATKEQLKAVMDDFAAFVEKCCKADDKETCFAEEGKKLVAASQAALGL", "experiment": "BLI; His-tagged galectins (2 µg/mL, PBS with 0.05% Tween-20) immobilised on Ni-NTA biosensors; serially diluted neo-glycoprotein 12 in solution; 25 °C, 800 rpm; steady-state analysis", "details": "both partners purified"}, "[10]": {"biological_target": "the molecule itself", "experiment": "dynamic light scattering; Gal-4 and its subunits at 25 µM, 25 °C, Zetasizer Nano S90; size distribution by intensity and by volume"}},
  "data": [
    {"molecule": "asialofetuin [ASF]", "values": [
      {"measurement": "Kd", "setting": "Gal-4 [1]", "value": "3.3 ± 1.1", "unit": "µM"},
      {"measurement": "Kd", "setting": "Gal-4CL [2]", "value": "19 ± 2", "unit": "µM"},
      {"measurement": "Kd", "setting": "Gal-4NL [3]", "value": "38 ± 3", "unit": "µM"}
    ]},
    {"molecule": "CC(=O)N[C@H]1[C@@H](O[C@H]2[C@@H](O)[C@@H](CO)O[C@@H](O[C@H]3[C@H](O)[C@@H](O)C(O)O[C@@H]3CO)[C@@H]2O[C@@H]2O[C@@H](C)[C@@H](O)[C@@H](O)[C@@H]2O)O[C@H](CO)[C@H](O)[C@@H]1O", "note": "(some centres unmarked) [blood-group antigen A (5), blood-group antigen A type 6]", "values": [
      {"measurement": "Kd", "setting": "Gal-4N", "value": 164, "unit": "µM"},
      {"measurement": "rp Gal-4CL, relative potency (IC50 (lactose)/IC50 (ligand))", "setting": "Gal-4CL [4]; Gal-4CL", "value": 320},
      {"measurement": "IC50", "setting": "Gal-4CL [4]; competitive ELISA, Gal-4CL 25 µM, immobilized ASF", "value": "27 ± 5", "unit": "µM"},
      {"measurement": "IC50", "setting": "Gal-4 [5]; competitive ELISA, Gal-4 2.5 µM, immobilized ASF", "value": "50 ± 20", "unit": "µM"},
      {"measurement": "rp, relative potency (IC50 (lactose)/IC50 (ligand))", "setting": "Gal-4 [5]; whole Gal-4", "value": 48},
      {"measurement": "rp Gal-4NL, relative potency (IC50 (lactose)/IC50 (ligand))", "setting": "Gal-4NL [6]; Gal-4NL", "value": 130},
      {"measurement": "fold stronger inhibitor of Gal-4NL than blood-group antigen B", "setting": "Gal-4NL [6]; Gal-4NL, ELISA", "value": 12, "unit": "fold"},
      {"measurement": "IC50", "setting": "Gal-4NL [6]; competitive ELISA, Gal-4NL 25 µM, immobilized ASF", "value": "22 ± 1", "unit": "µM"},
      {"measurement": "Kd", "setting": "Gal-4C", "value": 75, "unit": "µM"},
      {"measurement": "Kd", "setting": "Gal-4NL [7]", "value": 86, "unit": "µM"}
    ]},
    {"molecule": "B1", "values": [
      {"measurement": "Kd", "setting": "[8]", "value": "38 ± 3", "unit": "µM"},
      {"measurement": "Kd", "setting": "[9]", "value": "1 ± 0.2", "unit": "µM"}
    ]},
    {"molecule": "B2", "values": [
      {"measurement": "Kd", "setting": "[8]", "value": "19 ± 2", "unit": "µM"},
      {"measurement": "binding result", "setting": "[10]", "value": "binds"}
    ]}
  ]
}
